These results are taken from patent US20230391776A1, “AMIDE OXAZOLE COMPOUND” (MEDSHINE DISCOVERY INC., priority 2020, published 2023).

Assay [1] addresses T1, human IRAK4 (Homo sapiens, UniProt Q9NWZ3).
T1 construct: purchased Reaction Biology Corp
T1 sequence (Q9NWZ3 1-460): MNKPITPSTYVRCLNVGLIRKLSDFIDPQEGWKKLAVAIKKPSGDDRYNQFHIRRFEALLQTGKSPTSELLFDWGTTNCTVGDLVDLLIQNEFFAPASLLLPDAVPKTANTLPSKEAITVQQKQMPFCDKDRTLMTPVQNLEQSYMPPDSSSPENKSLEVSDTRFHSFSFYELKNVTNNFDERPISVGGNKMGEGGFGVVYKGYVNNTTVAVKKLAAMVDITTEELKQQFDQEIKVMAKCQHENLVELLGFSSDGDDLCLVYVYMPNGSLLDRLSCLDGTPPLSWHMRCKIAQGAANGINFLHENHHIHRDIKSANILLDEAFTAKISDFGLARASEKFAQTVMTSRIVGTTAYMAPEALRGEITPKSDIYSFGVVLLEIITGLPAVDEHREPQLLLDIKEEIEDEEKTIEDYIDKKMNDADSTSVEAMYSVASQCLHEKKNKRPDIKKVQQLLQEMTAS
Briefly: In vitro IRAK4 kinase activity, 33P isotope-labeled kinase assay. Type of assay: biochemical. As for the experimental part:
The IC50 values were determined using ^33P isotope-labeled kinase activity assay (Reaction Biology Corp) to evaluate the inhibitory ability of the tested compounds on human IRAK4.
(§1) Buffer conditions: 20 mM Hepes (pH 7.5), 10 mM MgCl2, 1 mM EGTA, 0.02% Brij35, 0.02 mg/mL BSA, 0.1 mM Na3VO4, 2 mM DTT, 1% DMSO.
Test procedure: At room temperature, the tested compound was dissolved in DMSO and a 10 mM solution was prepared for use. The substrate was dissolved in a newly prepared buffer solution, and the tested IRAK4 kinase was added thereto and mixed evenly. The DMSO solution dissolved with the tested compound was added to the above mixed evenly reaction solution using acoustic technique (Echo 550). After incubation for 15 minutes, ^33P-ATP was added to initiate the reaction. The reaction was carried out at room temperature for 120 minutes, and the reaction mixture was dropped on P81 ion exchange filter paper (Whatman #3698-915). The filter paper was washed repeatedly with 0.75% phosphoric acid solution, and the radioactivity of phosphorylated substrate residues on the filter paper was determined. The kinase activity data were expressed by comparing the kinase activity of the group containing the tested compound with the kinase activity of the blank group (only containing DMSO), and the IC50 value was obtained by curve fitting by Prism4 software (GraphPad), the experimental results were shown in Table 2.

In assay [2] the test system is TNF-α production in THP-1 cells. The assay can be described thus: TNF-α ELISA in LPS-stimulated THP-1 cells. It is filed as cell-based. The conditions noted are these: Homo sapiens, TNF-α in supernatant, 150 ng/mL LPS, 18 hours. As for the experimental part: THP-1 human acute single cell leukemia cells were purchased from ATCC (Cat #TIB-202) and cultured at 37° C. in 5% CO2 incubator. The composition of medium was RPMI1640 (Gibco, Cat #22400-105), and the supplementary compositions were 10% FBS (Gibco, Cat #10091148); 1% PenStrep (Gibco, Cat #15140); 0.05 mM β-mercaptoethanol (Sigma, Cat #M6250).
TNF-α Elisa kit was used to detect the content of TNF-α in cell culture supernatant samples. TNF-α was produced by stimulating THP-1 cells with 150 ng/mL LPS (Sigma, Cat #L6529).
THP-1 cells cultured normally at logarithmic growth period were seeded in a 96-well plate (Corning #3599) at a certain concentration (1*10^5/100 μL) and then put into a cell incubator for incubation. After two hours, 16.7 μL of different concentrations of the compound to be tested (8*final concentration) were added and incubated in an incubator. After one hour, 16.7 μL of 1200 ng/mL LPS was added and incubated in an incubator. After 18 hours, the culture supernatant samples were collected by centrifugation, and the content of TNF-α could be detected by TNF-α Elisa kit. Finally, OD signals (OD450-OD570) were read on envision board reader.
The OD450-OD570 signal value was converted into a percentage inhibition rate.
Inhibition rate %=(ZPE−sample)/(ZPE−HPE)*100.
“HPE” referred to the OD450-OD570 signal value of the control well without LPS stimulated cells, and “ZPE” referred to the OD450-OD570 signal value of the control well with LPS stimulated cells. The IC50 value of the compound was calculated by XLFit in the excel add-in.
Y=Bottom+(Top−Bottom)/(1+(IC50/X)^HillSlope). Equation: […]
In general terms: An ELISA detects its analyte on a solid surface through an enzyme-linked reagent.

Assay [3] deals with OCI-LY10 human diffuse large B lymphoma cells. Briefly: OCI-LY10 cell proliferation (Cell Titer Glo). The conditions noted are these: 72 hours. It is filed as cell-based. The method, then:
(§2) The tumor cell lines OCI-LY10 and TMD-8 were used to detect the effect of the compound of the disclosure on inhibiting tumor cell proliferation in vitro.
OCI-LY10 human diffuse large B lymphoma cells, from Nanjing Cobioer Biotechnology Co., Ltd
(§3) The compound was diluted with DMSO to a final concentration of 10 mM. The compound was freshly prepared and ready for use.
(§4) a) Logarithmic growth period cells were collected, counted, resuspended with complete culture medium, the cell concentration was adjusted to an appropriate concentration (determined according to the results of cell density optimization test), inoculated on 96-well plates, and 100 μL of cell suspension was added to each well. Cells were incubated in an incubator with 37° C., 100% relative humidity and 5% CO2 for 24 hours.
(§5) b) The compound to be tested was diluted to 50 μM with culture medium and then gradient diluted for 8 times. Cells were added with 25 μL/well. The final concentrations of the compound were from […], 3-fold gradient dilution, with a total of 9 concentration points.
(§6) c) Cells were incubated in an incubator with 37° C., 100% relative humidity and 5% CO2 for 72 hours;
(§7) d) 60 μL of CTG test reagent was added to the culture medium.
(§8) e) Shaked fully and reacted in the dark for 10 min. Luminescence was measured on ENVISION and the inhibition rate was calculated.
(§9) Cell growth inhibition rate %=[(RLUv−RLUs)/(RLUv−RLUb)]×100%
On the technique in general: In ATP-based viability assays light output follows the ATP content of the culture.

For assay [4], the target named is T2, human BTK (Homo sapiens, UniProt Q06187).
T2 construct: purchased Reaction Biology Corp
T2 sequence (Q06187 whole entry): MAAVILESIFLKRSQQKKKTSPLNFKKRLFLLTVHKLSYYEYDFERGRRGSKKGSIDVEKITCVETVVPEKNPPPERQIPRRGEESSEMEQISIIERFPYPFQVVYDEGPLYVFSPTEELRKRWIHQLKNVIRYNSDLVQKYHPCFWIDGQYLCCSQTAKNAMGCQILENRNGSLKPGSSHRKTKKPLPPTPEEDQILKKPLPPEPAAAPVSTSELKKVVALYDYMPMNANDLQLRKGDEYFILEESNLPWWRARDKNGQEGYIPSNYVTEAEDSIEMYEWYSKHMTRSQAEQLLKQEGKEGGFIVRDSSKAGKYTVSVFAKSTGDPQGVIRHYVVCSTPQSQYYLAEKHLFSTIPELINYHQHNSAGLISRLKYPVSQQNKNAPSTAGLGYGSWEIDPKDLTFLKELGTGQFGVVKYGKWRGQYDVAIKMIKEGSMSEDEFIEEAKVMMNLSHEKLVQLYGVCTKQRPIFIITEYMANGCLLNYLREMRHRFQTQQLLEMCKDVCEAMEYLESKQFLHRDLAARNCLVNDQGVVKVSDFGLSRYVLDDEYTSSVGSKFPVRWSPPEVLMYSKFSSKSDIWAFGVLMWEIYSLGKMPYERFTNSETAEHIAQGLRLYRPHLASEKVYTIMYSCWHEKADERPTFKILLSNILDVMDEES
Briefly: In vitro BTK kinase activity, 33P isotope-labeled kinase assay. It is filed as biochemical. As for the experimental part:
The IC50 values were determined using ^33P isotope-labeled kinase activity assay (Reaction Biology Corp) to evaluate the inhibitory ability of the tested compounds on human BTK.
as §1
Test procedure: At room temperature, the tested compound was dissolved in DMSO and a 10 mM solution was prepared for use. The substrate was dissolved in a newly prepared buffer solution, and the BTK kinase was added thereto and mixed evenly. The compound dissolved in DMSO was added to the kinase reaction mixture through Echo 550 (Acoustic technology; Nanoliter range). After incubation for 20 minutes at room temperature, ^33P-ATP was added to initiate the reaction. The reaction was carried out at room temperature for 2 hours, and the radioactivity of the reaction solution drop was detected by filtration-binding method with P81 ion exchange filter paper. The kinase activity data were expressed by comparing the kinase activity of the group containing the tested compound with the kinase activity of the blank group (only containing DMSO), and the IC50 value was obtained by curve fitting by Prism4 software (GraphPad), the experimental results were shown in Table 3.

Assay [5] has as its system TMD-8 human diffuse large B lymphoma cells. The assay can be described thus: TMD-8 cell proliferation (Cell Titer Glo). It is filed as cell-based. The conditions noted are these: TMD8, 72 hours. The method, then:
as §2
TMD-8 human diffuse large B lymphoma cells, from Nanjing Cobioer Biotechnology Co., Ltd
as §3, §4, §5, §6, §7, §8, §9

Assay [6] relates to OCI-LY3 cell line. Briefly: OCI-LY3 cell proliferation (CTG). Type of assay: cell-based. The conditions noted are these: Homo sapiens, 72 hours. The method, then: The tumor cell line OCI-LY3 was used to detect the effect of the compound of the disclosure on inhibiting tumor cell proliferation in vitro.
The tumor cell line used in this experiment was provided by Nanjing Cobioer Biotechnology Co., Ltd. See Table 6 below for specific information.
The OCI-LY3 cell line was cultured in the corresponding medium at 37° C. and 5% CO2, and the logarithmic growth period cells were used for experimental planking. The cells were collected and centrifuged at 800 rpm for 5 minutes, and the culture medium was re-suspended and spread in a 96-well plate. After being cultured overnight in 37° C., 5% CO2 incubator, drugs with different concentration gradients (10 μL of prepared diluent of test compound was added) were added, and incubated in 37° C., 5% CO2 incubator for 72 hours. The cell culture plate was incubated with CTG reagent at room temperature in the dark for 30 minutes and return to room temperature. CTG solution was added into the biosafety cabinet in the dark 100 μL/well, and was shaken and mixed evenly on plate shaker in the dark for 2 minutes, and incubated at room temperature in the dark for 10 minutes. The luminous value was read and recorded with Perkin Elmer Envision instrument.
The luminous value of the blank control group was subtracted from the luminous value measured at each drug concentration, the ratio of this value to DMSO group was taken as the cell inhibition rate (%). GraphPad software was used, the logarithm of drug concentration (log drug concentration) versus inhibition rate was plotted, and the IC50 value and 95% confidence value were automatically fitted and calculated by log (inhibitor) vs. response-variable slop (four parameters) algorithm of nonlinear regression by software.

What is called IC50 is the concentration at which inhibition is half-maximal.

Molecules are shown by their SMILES.

As to `CC(=O)Nc1cc(-c2nc(C(=O)Nc3cn4cc(CCC(C)(C)O)nc4cc3N3CCCCC3)co2)ccn1` [WX002], the IC50 in assay [1] was 6.6 nM; in assay [2], 116 nM; in assay [3], 125 nM.
With `COc1cc(-c2nc(C(=O)Nc3cn4cc(CCC(C)(C)O)nc4cc3N3CCCCC3)co2)ccn1` [WX003], the IC50 in assay [1] was 0.6 nM; in assay [4], 15.4 nM.
Take `CN(C)c1cc(-c2nc(C(=O)Nc3cn4cc(CCC(C)(C)O)nc4cc3N3CCCCC3)co2)ccn1` [WX004]: the 50% inhibitory concentration (IC50) in assay [1] came out at 12 nM.
As to `CC(C)(O)CCc1cn2cc(NC(=O)c3coc(-c4ccnc5[nH]ccc45)n3)c(N3CCCCC3)cc2n1` [WX005], the IC50 came out at 1.5 nM in assay [1], 0.6 nM in assay [4], 171 nM in assay [2] and 325 nM in assay [5].
As for `CNc1cc(-c2nc(C(=O)Nc3cn4cc(CCC(C)(C)O)nc4cc3N3CCCCC3)co2)ccn1` [WX006], the IC50 stood at 1 nM in assay [1]; 0.7 nM in assay [4]; 94 nM in assay [2]; 36 nM in assay [3]; 183 nM in assay [5].
For the compound `Cc1cc(-c2nc(C(=O)Nc3cn4cc(CCC(C)(C)O)nc4cc3N3CCC4(CCOC4)CC3)co2)ccn1` [WX007], the results for the concentration for half-maximal inhibition (IC50) in assay [1] and in assay [4] were 0.4 nM and 4.1 nM, respectively.
Taken in the same sequence, the figures for `Cc1cc(-c2nc(C(=O)Nc3cn4cc(CCC(C)(C)O)nc4cc3N3CCC4(CC3)COC4)co2)ccn1` [WX008] were 4.3 nM and 71 nM.
Taken in the same sequence, the figures for `Cc1cc(-c2nc(C(=O)Nc3cn4cc(C(C)(C)O)nc4cc3N3CCC(CO)CC3)co2)ccn1` [WX010] were 2.1 nM and 21.2 nM.
Take `CS(=O)(=O)CCc1cn2cc(NC(=O)c3coc(-c4ccnc(N)c4)n3)c(N3CCCCC3)cc2n1` [WX011]: the IC50 was determined as 4.7 nM in assay [1]; 1.3 nM in assay [4]; 6 nM in assay [3]; 28 nM in assay [5]; 26 nM in assay [6].
In the case of `Cc1cc(-c2nc(C(=O)Nc3cn4cc(CCS(C)(=O)=O)nc4cc3-c3ccccc3)co2)ccn1` [WX012], the IC50 in assay [1] came out at 0.4 nM; in assay [4], 14.4 nM; in assay [3], 20 nM.
With `CN(C)CCc1cn2cc(NC(=O)c3coc(-c4ccnc(N)c4)n3)c(N3CCCCC3)cc2n1` [WX014], the IC50 in assay [1] was 2.5 nM; in assay [4], 0.5 nM; in assay [3], 18 nM; in assay [5], 40 nM; in assay [6] it was 41 nM.
Turning to `Cc1cc(-c2nc(C(=O)Nc3cn4cc(CCN(C)C)nc4cc3-c3ccccc3)co2)ccn1` [WX015], the IC50 turned out to be 0.4 nM in assay [1], 5.6 nM in assay [4], 60 nM in assay [2] and 36 nM in assay [3].
Compound `Cc1cc(-c2nc(C(=O)Nc3cn4cc(C(C)(C)O)nc4nc3-c3ccccc3)co2)ccn1` [WX018] displayed an IC50 in assay [1] of 5.1 nM.
For the compound `Cc1cc(-c2nc(C(=O)Nc3cn4cc(C(C)(C)O)nc4cc3-c3ccccn3)co2)ccn1` [WX021], the IC50 in assay [1] amounted to 0.3 nM; in assay [4], 19.8 nM.
In the same order, the values of `COc1cc(-c2nc(C(=O)Nc3cn4cc(C(C)(C)O)nc4cc3-c3ccccc3)co2)ccn1` [WX022] are 0.1 nM and 45 nM.
With `CNc1cc(-c2nc(C(=O)Nc3cn4cc(C(C)(C)O)nc4cc3-c3ccccc3)co2)ccn1` [WX023], the IC50 was found to be 0.1 nM in assay [1], 1 nM in assay [4] and 14 nM in assay [3].
In turn, `Cc1cc(-c2nc(C(=O)Nc3cn4cc(CC(N)=O)nc4cc3-c3ccccc3)co2)ccn1` [WX025] displayed an IC50 in assay [1] of 0.1 nM.
In assay [1], `Cc1nccc(-c2nc(C(=O)Nc3cn4cc(C(C)(C)O)nc4cc3-c3ccccc3)co2)c1F` [WX028] came in with an IC50 of 0.1 nM.
Turning to `Cc1cc(-c2nc(C(=O)Nc3cn4cc(S(C)(=O)=O)nc4cc3-c3ccccc3)co2)ccn1` [WX029], the IC50 in assay [1] amounted to 0.1 nM; in assay [3], 48 nM.
For the compound `Cc1cc(-c2nc(C(=O)Nc3cn4cc(N=S(C)(C)=O)nc4cc3-c3ccccc3)co2)ccn1` [WX032], the IC50 in assay [1] amounted to 0.9 nM.
On the same count and under the same terms, in the case of `Cc1cc(-c2nc(C(=O)Nc3cn4cc(CC(C)(C)O)nc4cc3-c3ccccc3)co2)ccn1` [WX038] it was 0.3 nM.
